Laboratory results taken from paper PMC12266748, “A Xanthine Derivative With Novel Heat Shock Protein 90‐Alpha Inhibitory and Senolytic Properties” (Aging Cell, 2025).
Like-named read-outs stand apart in the source and are kept apart here.

System: Human mesenchymal stem cells (MSCs)
Assay: MTT viability of Doxorubicin-induced senescent and non-senescent MSCs
Format: cell-based
Conditions: for EC50: Homo sapiens, Mesenchymal stem cells, MTT
Text: IMR90 and WI38 lung fibroblasts were purchased from ECACC‐Merck. Human bone marrow (BM)‐derived mesenchymal stromal cells (MSCs) were purchased from Lonza. Human umbilical vein endothelial cells (HUVECs) are primary cells obtained from a pool of donors purchased from Clonetics (Lonza). Murine ear fibroblasts (MearFs) were obtained from C57BL/6J mice maintained in the INRCA “Specific Pathogen Free” (SPF) animal facility. MCF7 breast cancer cells were purchased from ATCC. For dose–response curves, IMR90 and WI38 were induced to senescence through replicative passages; MSCs, HUVECs, and MearFs senescence was induced with Doxorubicin; MCF7 senescence was induced with 4‐Hydroxytamoxifen (Lee et al. [2014]). The EC50 was calculated using GraphPad Prism 10 software. All treatment specifications are reported in the extended section.
Cell viability was determined using an MTT assay. Absorbance was measured using a NB‐12‐0035 Microplate Reader (NeoBiotech Co.). Data are expressed as a percentage of viability compared with untreated cells.
Human bone marrow (BM)-derived mesenchymal stromal cells (MSCs) were purchased from Lonza (Allendale, NJ, USA) and cultured in α-MEM (Euroclone, Milano, Italy), with 10% fetal bovine serum (FBS, Lonza, Stein, Switzerland), 100 U/mL penicillin, […] streptomycin and 2 mM L-glutamine. Cells were seeded at a density of 5000/cm^2 and maintained at 37°C in a humidified atmosphere with 5% CO2. The culture medium was changed at 48 h intervals, and cells were trypsinized when almost 80% were confluent using 0.25% trypsin-EDTA (Euroclone, Milano, Italy). […]
Cell viability assay. Cell viability has been determined with MTT (3-(4,5-dimethylthiazol-2-yl)-2, 5-diphenyltetrazolium bromide) assay. […] Insoluble formazan salts produced were solubilized with DMSO incubation, and then absorbance was measured at 540 nm using a microplate reader (NB-12-0035 Microplate Reader, NeoBiotech Co., Seoul, Republic of Korea). Data are expressed as a percentage of viability compared with untreated cells (the control group has been considered 100% of viability).

Which results are given for Cc1ccccc1-n1c(=O)n(Cc2ccccc2)c(=O)c2[nH]cnc21 [Compound K5, 1-benzyl-3-(2-methylphenyl)-7H-purine-2,6-dione]?
Senolytic evidence (no, partly/yes) (DNA damage (Doxorubicin)): Partly; EC50 (DNA damage (Doxorubicin), read-out: EC50 senescent cells): > 200 µM; EC50 (read-out: EC50 proliferating cells): > 500 µM
